# Results as given in patent publication US10426755B2, “Methods for inhibiting cancer cells” (Chang Gung Memorial Hospital, Chiayi, priority 2015, dated 2019).
# Experiments:
# Type in all cases: cell-based
# [1] = system: lung cancer cell lines (A549 and chemotherapy-resistant/metastatic H460); assay: XTT proliferation assay, lung cancer cells; conditions: 1-2 days, FIG. 2
# Protocol: The prostate cancer cells were plated at a density of 10^3 or 3×10^3 per well, in a 96-well plate, in a medium containing 10% Fetal bovine serum (FBS) (Gibco®, commercially available from Life Technologies, USA). Once the prostate cancer cells were attached to the culture dish, the 10% FBS medium was replaced with a second 10% FBS medium and each of the prostate cancer cell line was treated with 1, 5, and 10 μM of DT respectively for 1-2 days. The absorbance was measured using XTT assay kit (commercially available from Roche, Switzerland) at 492 nm using an ELISA reader (Bio-Rad Laboratories, USA). An in vitro evaluation of the effect of DT, gemcitabine (a chemotherapeutic agent) and etoposide (a chemotherapeutic agent) on the lung cancer cells was performed. The lung cancer cell lines, chemotherapy-resistant/metastatic H460 lung cancer cells (with pleural metastasis) and A549 lung cancer cells, were purchased from Bioresource Collection and Research Center, Taiwan. […] The absorbance was measured using XTT assay kit at 492 nm using an ELISA reader.
# [2] = system: CCL2 in metastatic DU145 prostate cancer cells; assay: CCL2 ELISA of culture medium, DU145; conditions: 5 or 10 μM DT, 24 hours, vs DMSO, FIG. 14 (c)
# Protocol: (§1) It has been reported that increased CCL2 expression enhances cancer cell metastasis via macrophage recruitment. The effect of DT on CCL2 expression in RAW264.7 macrophages, THP1 monocytes and prostate cancer cells (metastatic DU145 and hormone therapy resistant and metastatic PC3) was examined by treating the cells with DMSO (control), 5 or 10 μM DT for 24 hours.
# (§2) The culture medium was collected and the concentration of CCL2 was measured using ELISA assay.
# [3] = system: CCL2 in THP1/DU145 co-culture; assay: CCL2 ELISA, THP1/DU145 co-culture; conditions: DT-treated monocyte/DU145 co-culture medium; 5 or 10 μM DT, 24 hours; FIG. 15 (a)
# Protocol: (§3) As illustrated in Example 10, the production of CCL2 was inhibited by DT in both prostate cancer cells and macrophage, the effect of DT on monocyte/cancer cell co-culture and macrophage/cancer cell co-culture was examined using the invasion assay described in Example 9. • (a) THP1 monocytes, Raw264.7 macrophage, monocyte/prostate cancer co-culture and macrophage/prostate cancer co-culture were treated with a vehicle (DMSO), 5 or 10 μM DT for 24 hours, the cultured medium was collected and placed into the lower chamber of a transwell plate. • (b) Prostate cancer cells (PC3, DU145 and 22RV1) were placed in the cell invasion assay). The level of CCL2 in the invasion assay was measured by ELIZA method.
# [4] = system: CCL2 in THP1 cells/22RV1 co-culture; assay: CCL2 ELISA, THP1/22RV1 co-culture; conditions: DT-treated monocyte/22RV1 co-culture medium; 5 or 10 μM DT, 24 hours; FIG. 15 (b)
# Protocol: as §3
# [5] = system: breast cancer cells (MCF-7, tamoxifen-resistant MCF7 and MDA MB-231); assay: Annexin V/PI flow cytometry apoptosis/necrosis, breast cancer cells; conditions: 10 or 20 μM DT, 24-48 hours, vs PBS and control; time dependent; FIG. 8
# Protocol: The effect of DT on metastatic prostate cancer cells (hormone therapy-resistant PC3, DU145 and LNCaP); lung cancer cells (A549 and chemotherapy-resistant/metastatic H460); and breast cancer cells (MCF-7, tamoxifen-resistant MCF7 and MDA MB-231) was assessed.
# 1×10^6 Cancer cells were seeded in a 100-mm plate and cultured overnight. The cancer cells were treated with phosphate buffered saline (PBS), a Dimethyl sulfoxide (DMSO) vehicle (CT), 10 or 20 μM of DT for 24-48 hours, then collected and washed with cold PBS. The supernatant was removed by centrifugation and resuspended in FITC Annexin V binding buffer and Propidium iodide (PI) (Annexin V-FITC Apoptosis Detection Kit, commercially available from Strong Biotech Corporation, Taiwan). The suspended cancer cells were stained at room temperature, in the dark for 15 min and analyzed by the BD FACSCanto™ flow cytometry (Becton Dickinson, USA). The amount of early apoptosis, late apoptosis, and necrosis was measured as the percentage of annexin-V positive/PI negative (Q4 in the FACS images), annexin-V positive/PI positive (Q2 in the FACS images), and annexin-V negative/PI positive cells (Q1 in the FACS images), respectively. Normal cells are in […] of the FACS images.
# [6] = system: CCL2 in RAW 264.7 cells/DU145 co-culture; assay: CCL2 ELISA, RAW 264.7/DU145 co-culture; conditions: DT-treated macrophage/DU145 co-culture medium; 5 or 10 μM DT, 24 hours; FIG. 15 (c)
# Protocol: as §3
# [7] = system: CCL2 in THP1 monocytes; assay: CCL2 ELISA of culture medium, THP1 monocytes; conditions: 5 or 10 μM DT, 24 hours, vs DMSO, FIG. 14 (b)
# Protocol: as §1, §2
compound,measurement,setting,value
"Cc1cccc2c3c(ccc12)C(=O)C1=C(OCC1C)C3=O (centres unmarked) [DT, dihydroisotanshinone I]",inhibition of lung cancer cells (proliferation),"[1]; 5, 10 and 20 μM DT, XTT",inhibits the lung cancer cells in a dose dependent fashion
same,"inhibition of lung cancer proliferation, DT compared with gemcitabine and etoposide","[1]; DT 5, 10, 20 μM, gemcitabine hydrochloride and etoposide 10, 20 μM, regardless of the dosage, also H460",more effective than gemcitabine and etoposide in inhibiting lung cancer proliferation
same,production of CCL2 in metastatic DU145 prostate cancer cells,[2],effectively inhibit the production of CCL2
same,concentration of CCL2,[3],significantly reduced
same,concentration of CCL2,[4],significantly reduced
same,"early apoptosis, late apoptosis and necrosis, breast cancer cells",[5],"more early apoptosis, late apoptosis and necrosis"
same,concentration of CCL2,[6],significantly reduced
same,production of CCL2 in THP1 monocytes,[7],effectively inhibit the production of CCL2
